This note sets out measurements from patent US7968116B2, “Antitumor agent” (Otsuka Pharmaceutical Co., Ltd., priority 2005, dated 2011).

Molecules are shown by their SMILES. Like-named read-outs stand apart in the source and are kept apart here.

The experiment concerns HT-29 (human) cancer cell line. Put plainly: Cell proliferation inhibitory effect (MTT assay) on cultured cancer cell line HT-29. It is filed as cell-based. Conditions: HT-29 cells; for IC50: incubation at 37° C. for three days, MTT assay, read-out: CPI50 (concentration required for attaining 50% CPI, percent cell proliferation inhibition). The protocol: A cultured cancer cell line (HT-29 (human)) was inoculated into a 96-well plate (1×10^4 cells/100 μL/well), and subsequently the GlcNAc-cholestanol-compound-containing liposomal formulation or cyclodextrin inclusion complexation prepared in Example 1 was added to the 96-well plate, followed by incubation at 37° C. for three days. Thereafter, the MTT assay was performed, and the number of cells was determined. Percent cell proliferation inhibition was obtained by use of the below-described formula.
Percent cell proliferation inhibition (percent CPI) (%)=(1 −OD of treated cells/OD of non-treated cells)×100 [E1]
OD of treated cells and OD of non-treated cells were measured at 450 nm and 650 nm, respectively (according to the MTT assay).
In general terms: Formazan colour is commonly taken as a measure of viable cells.

Where [1] appears, read: Cyclodextrin inclusion complexation.

Take `CC(=O)N[C@H]1[C@H](O[C@H]2[C@@H](O)[C@@H](CO)O[C@@H](O[C@H]3CC[C@@]4(C)[C@@H](CC[C@@H]5[C@@H]4CC[C@]4(C)[C@@H]([C@H](C)CCCC(C)C)CC[C@@H]54)C3)[C@@H]2O)O[C@H](CO)[C@@H](O)[C@@H]1O` [GlcNAcGalChol, GlcNAcβ1,3Galβ-cholestanol]: the IC50 was found to be 15.9 µM under setting [1] and 10.2 µM (Liposomal formulation).
As for `CC(=O)N[C@H]1[C@H](O[C@H]2CC[C@@]3(C)[C@@H](CC[C@@H]4[C@@H]3CC[C@]3(C)[C@@H]([C@H](C)CCCC(C)C)CC[C@@H]43)C2)O[C@H](CO)[C@@H](O)[C@@H]1O` [GlcNacChol, 5-α-cholestan-3β-yl-2-acetamido-2-deoxy-β-D-glucopyranoside], the IC50 by setting is: under setting [1], 8.8 µM; (Liposomal formulation) 10.4 µM. Further, the “cell proliferation inhibitory effect (in words)” value (liposomal formulation or cyclodextrin inclusion complexation, three days) is reported as “strong cell proliferation inhibitory effect”.
`CC(C)CCC[C@@H](C)[C@H]1CC[C@H]2[C@@H]3CC[C@H]4C[C@@H](O)CC[C@]4(C)[C@H]3CC[C@]12C` [Chol, cholestanol]: the IC50 is more than 1000 µM under setting [1] and 354 µM (Liposomal formulation).
As for `CC(C)CCC[C@@H](C)[C@H]1CC[C@H]2[C@@H]3CCC4CC(OC5O[C@H](CO)[C@H](O)[C@H](O)[C@H]5O)CC[C@]4(C)[C@H]3CC[C@]12C` (stereo partly drawn) [GalChol, Galp-cholestanol], the IC50 reads like this: under setting [1], 37.4 µM; (Liposomal formulation) 12.7 µM.
